# Assay results published in PubChem BioAssay AID2060889 (Molecular Pharmacology Branch, DTP, NCI, 2025).
# Test system: LG0567-F671-PDC complex spheroids viability
# Assay: Anticancer human tumor LG0567-F671-PDC patient-derived lung adenocarcinoma cell line growth inhibition [RAS]
# Details: for IC50: curve of first compound; for viability, T/C: stronger effect = lower value
# Source text: RAS pathway inhibitors in Combinations in Complex Spheroids
# A high-throughput screen of multi-cell type tumor spheroids was designed to identify active combinations of RAS pathway inhibitors and targeted small molecules. Complex spheroids include a stromal component modeled by human endothelial cells (HUVEC) and fibroblasts modeled by human mesenchymal stem cells (MSCs). The concentration ranges selected for each drug and investigational agent were based upon clinically achievable concentrations if the clinical Cmax of the agent was known.
# Compounds. The drugs and investigational agents: abemaciclib (NSC768073), cobimetinib (NSC768068), divarasib (GDC6063, NSC841802), docetaxel (NSC628503), GDC-1971 (RLY-1971, NSC841576), gemcitabine (NSC613327), inavolisib (NSC800729), ipatasertib (NSC767898), KB-0742 (NSC834161), MRTX-1133 (NSC836407), osimertinib (NSC779217), RMC-4630 (NSC839698), RMC-6236 (NSC851965), RMC-6291 (NSC852671), Ro-3306 (NSC812927), sapanisertib (NSC764658), SN-38 (NSC673596), staurosporine (NSC755774), SY5609 (NSC837396), and tovorafenib (DAY101, NSC766906), were obtained from the National Cancer Institute (NCI) Developmental Therapeutics Program Chemical Repository. The FDA-approved anticancer drug set is available from the NCI Developmental Therapeutics Program. […] The stock solutions were prepared in dimethyl sulfoxide (DMSO, Sigma-Aldrich, St. Louis, MO, cat. D2650) at 800-fold the tested concentration and stored at -70 degrees C prior to their use. All drugs and investigational agents were tested over a range starting from a high concentration at or near the clinical Cmax and decreasing in half-log increments. If the clinical Cmax for an agent had not been determined, the highest concentration tested was 10 microM.
# Cell Culture. All cells were maintained in an incubator at 37 degrees C and 5% CO2 with 95% humidity. The PDC lines were cultured according to standard operating procedures established by the NCI PDMR. All PDCs were thawed and cultured in Matrigel-coated flasks prepared with a working solution of 1X Ham's F-12 nutrient mix, without supplementation (Invitrogen, Waltham, MA, cat. 11765054), 100 U/mL penicillin-streptomycin (Invitrogen, cat. 15140122), and 2.5% Matrigel (Corning Inc., Corning, NY, cat. 354248) for the first three passages. The 362531-283-R-J2-PDC and 782815-120-R-J1-PDC lines were cultured in 6C/Colon 1B media, which includes advanced DMEM/F-12 (Thermo Fisher Scientific, cat. 12634028), 10 mM HEPES (Thermo Fisher Scientific, cat. 15630080), 1X GlutaMAX supplement (Thermo Fisher Scientific, cat. 35050061), 0.1 mg/mL primocin (InvivoGen, San Diego, CA, cat. ant-pm-2), 10% defined fetal bovine serum, heat inactivated (HyClone Laboratories Inc., Logan, UT, cat. SH30070.03HI), 50% L-WRN conditioned media (ATCC, cat. CRL-3276), 1.25 mM N-Acetyl-L-cysteine (Sigma-Aldrich, cat. A9165), 10 mM nicotinamide (Sigma-Aldrich, cat. N0636), 1X B-27 supplement (Thermo Fisher Scientific, cat. 17504044), 1X N-2 supplement (Thermo Fisher Scientific, cat. 17502048), 50 ng/mL human EGF (Thermo Fisher Scientific, cat. PHG0311), and 10 microM Y-27632 dihydrochloride (Tocris Bioscience, cat. 1254). The K12877-001-R-J1-PDC line was cultured in 6I media, which includes all 6C/Colon 1B media plus 10 ng/mL human FGF-10 (PeproTech, cat. 100-26), 1 ng/mL human FGF-2 (PeproTech, cat. 100-18B), 1 µM prostaglandin E2 (Tocris Bioscience, cat. 2296), […] hydrocortisone (Sigma-Aldrich, cat. H4001), and […] bovine insulin (Sigma-Aldrich, cat. I6634). The K86415-001-R-J1-PDC line was cultured in 6D media, which includes all 6C/Colon 1B media components minus the L-WRN conditioned media. The 485176-168-R4-J1-PDC was cultured in PANC media, which includes all 6C/Colon 1B media plus 100 ng/mL human FGF-10 (PeproTech, cat. 100-26), 500 nM SB-431542 (Selleckchem, cat. S1067), and 10 nM gastrin (Tocris Bioscience, cat. 3006). […]
# 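Also: spheroids exposed to compound for seven days before readout.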
# 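For IC50 in this document: luminescence signal used as a proxy for viable cells.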
smiles,measurement,setting,value
O=C(c1ccc(F)c(F)c1Nc1ccc(I)cc1F)N1CC(O)([C@@H]2CCCCN2)C1 + C=CC(=O)N1CCN(c2nc(OCC3CCCN3C)nc3c(F)c(-c4nc(N)cc(C)c4C(F)(F)F)c(Cl)cc23)C(C)C1,IC50,second compound 0.00316 µM,< 3.16 nM
same,IC50,second compound 0.01 µM,< 3.16 nM
same,IC50,second compound 0.0316 µM,< 3.16 nM
same,IC50,second compound 0.1 µM,< 3.16 nM
same,IC50,second compound 0.316 µM,< 3.16 nM
same,IC50,second compound 1 µM,< 3.16 nM
same,"viability, T/C","second compound 0.00316 µM, first compound 0.00316 µM",15.6%
same,"viability, T/C","second compound 0.00316 µM, first compound 0.01 µM",16.9%
same,"viability, T/C","second compound 0.00316 µM, first compound 0.0316 µM",8.91%
same,"viability, T/C","second compound 0.00316 µM, first compound 0.1 µM",8.75%
same,"viability, T/C","second compound 0.00316 µM, first compound 0.316 µM",3.51%
same,"viability, T/C","second compound 0.00316 µM, first compound 1 µM",1.58%
same,"viability, T/C","second compound 0.01 µM, first compound 0.00316 µM",12.4%
same,"viability, T/C","second compound 0.01 µM, first compound 0.01 µM",11.6%
same,"viability, T/C","second compound 0.01 µM, first compound 0.0316 µM",10.7%
same,"viability, T/C","second compound 0.01 µM, first compound 0.1 µM",5.03%
same,"viability, T/C","second compound 0.01 µM, first compound 0.316 µM",3.8%
same,"viability, T/C","second compound 0.01 µM, first compound 1 µM",1.56%
same,"viability, T/C","second compound 0.0316 µM, first compound 0.00316 µM",11.8%
same,"viability, T/C","second compound 0.0316 µM, first compound 0.01 µM",8.27%
same,"viability, T/C","second compound 0.0316 µM, first compound 0.0316 µM",7.53%
same,"viability, T/C","second compound 0.0316 µM, first compound 0.1 µM",5.24%
same,"viability, T/C","second compound 0.0316 µM, first compound 0.316 µM",3.75%
same,"viability, T/C","second compound 0.0316 µM, first compound 1 µM",1.45%
same,"viability, T/C","second compound 0.1 µM, first compound 0.00316 µM",11.5%
same,"viability, T/C","second compound 0.1 µM, first compound 0.01 µM",9.3%
same,"viability, T/C","second compound 0.1 µM, first compound 0.0316 µM",6.61%
same,"viability, T/C","second compound 0.1 µM, first compound 0.1 µM",5.01%
same,"viability, T/C","second compound 0.1 µM, first compound 0.316 µM",2.96%
same,"viability, T/C","second compound 0.1 µM, first compound 1 µM",1.42%
same,"viability, T/C","second compound 0.316 µM, first compound 0.00316 µM",12.2%
same,"viability, T/C","second compound 0.316 µM, first compound 0.01 µM",9.6%
same,"viability, T/C","second compound 0.316 µM, first compound 0.0316 µM",6.94%
same,"viability, T/C","second compound 0.316 µM, first compound 0.1 µM",5.35%
same,"viability, T/C","second compound 0.316 µM, first compound 0.316 µM",3.61%
same,"viability, T/C","second compound 0.316 µM, first compound 1 µM",1.71%
same,"viability, T/C","second compound 1 µM, first compound 0.00316 µM",12.3%
same,"viability, T/C","second compound 1 µM, first compound 0.01 µM",10.1%
same,"viability, T/C","second compound 1 µM, first compound 0.0316 µM",7.82%
same,"viability, T/C","second compound 1 µM, first compound 0.1 µM",5.94%
same,"viability, T/C","second compound 1 µM, first compound 0.316 µM",4.07%
same,"viability, T/C","second compound 1 µM, first compound 1 µM",1.77%
